Assay results published in US20250241906A1, “ANABOLIC DRUGS STIMULATING TYPE II COLLAGEN PRODUCTION FROM CHONDROCYTES OR THEIR PROGENITORS” (UNIVERSITY OF CENTRAL FLORIDA RESEARCH FOUNDATION, INC., priority 2022, published 2025).
Where a name gives a salt, the structure may show the parent alone. Each block holds one molecule with its values, some of them ahead of it.

Tests used:
[1] = system: type II collagen promoter (COL2A1-Gaussia luciferase) in primary human chondrocytes; test: HuCol2gLuc 3D aggregate type II collagen promoter-driven Gaussia luciferase assay; type: cell-based; details: for stimulation of type II collagen production in the screen of natural products: NCI Natural Products Set V, 5 μM continuously, 22-day assay
Experimental: Chondrogenic Culture. Human COL2A1-GLuc or uninfected cells were thawed and seeded in growth media on synoviocyte matrix at 6,000 cells/cm^2 and expanded to 90-100% confluence in physioxia. Cells were trypsinized (0.25% Trypsin/EDTA; Corning), resuspended in growth media (for monolayer culture) or chondrogenic differentiation media for 3D aggregates (93.24% High-Glucose DMEM (Gibco), 1% dexamethasone 10^−5M (Sigma), 1% ITS+premix (Becton-Dickinson), 1% Glutamax (Hyclone), 1% 100 mM Sodium Pyruvate (Hyclone), 1% MEM Non-Essential Amino Acids (Hyclone), 0.26% L-Ascorbic Acid Phosphate 50 mM (Wako), 0.5% Fungizone (Life Technologies) with TGF-β1 (Peprotech) and seeded as described below.
Generation and Maintenance of 3D aggregates. To generate 3D aggregates, cells were seeded at 50,000 cells per well (in 96-well cell repellent u-bottom plates, GreinerBio) and then centrifuged at 500 RCF, 5 min. For the initial drug screen, aggregates were cultured in basal chondrogenic media (1 ng/ml TGF-β1) alone, with DMSO (vehicle control) or 5 μM of the drug compounds from the NCI library (Natural Products V, NCI). For candidate validation and subsequent studies aggregates were cultured in basal chondrogenic media (10 ng/ml TGF-β1) alone, with DMSO (vehicle control) or compounds as indicated in the results. Aggregates were cultured for three weeks in physioxic conditions, culture medium was sampled and replaced three times a week with fresh medium. An OT-2 (Opentrons) python coded robotic pipette, programmed at an aspiration height of 2 mm from the bottom of the wells and aspiration rate of 40 μl/s was utilized for addition of compound, cell feeding, and media sampling for luciferase assay. After three weeks, cell aggregates were either fixed in neutral buffered formalin for histology or medium removed and aggregates frozen dry (−20° C.) for biochemical assays.
(§1) Luciferase Assay. Conditioned culture medium sampled from aggregates in 96-wells (20 μL/well) was assessed using a stabilized Gaussia Luciferase buffer mix (50 µl/well) for a final concentration of 0.09 M MES, 0.15M Ascorbic Acid, and 4.2 μM Coelenterazine in white 96-well plates. Luminescence was measured in a plate reader (25° C., relative light units (RLU), En Vision plate reader). An OT-2 (Opentrons) python coded robotic pipette was utilized for luciferase buffer addition to white plates (GreinerBio).

[2] = system: type II collagen promoter (COL2A1-GLuc) in primary rabbit chondrocytes; test: COL2A1-GLuc primary rabbit chondrocyte 3D aggregate luciferase assay; type: cell-based; details: day 21; for luminescence with a single vitamin or mineral vs basal media alone: one factor at a time; for luminescence: basal media alone ~40,000 RLU
Experimental: Chondrogenic Culture. Rabbit COL2A1-GLuc were thawed and seeded in growth media at 6000 cells/cm^2 and expanded to 90-100% confluence in physioxia. Cells were trypsinized (0.25% Trypsin/EDTA; Corning), resuspended in basal chondrogenic media (93.24% High-Glucose DMEM (Gibco), 1% dexamethasone 10^−5 M (Sigma), 1% ITS+premix (Becton-Dickinson), 1% Glutamax (Hyclone), 1% 100 mM Sodium Pyruvate (Hyclone), 1% MEM Non-Essential Amino Acids (Hyclone), 0.26% L-Ascorbic Acid Phosphate 50 mM (Wako), 0.5% Fungizone (Life Technologies) with TGF-β1 (Peprotech) and seeded as described below.
Generation and Maintenance of 3D Aggregates. To generate 3D aggregates, cells were seeded at 50,000 cells per well (in 96-well cell repellent u-bottom plates, GreinerBio) and then centrifuged at 500 RCF, 5 min. For the TGF-β1 dose response studies, that serve as positive controls for the reporter cells, aggregates were cultured in basal chondrogenic media and different concentrations of TGF-β1 ranging from 0-10 ng/ml. For the DoE studies, aggregates were cultured in basal chondrogenic media (1 ng/ml TGF-β1) as a control or basal media supplemented with vitamins and minerals (Table 3 and Table 5). Plates were cultured for three weeks in physioxia, media was sampled and replaced three times a week with respective medium. An OT-2 (Opentrons) python coded robotic pipette, programmed at an aspiration height of 2 mm from the bottom of the wells and aspiration rate of 40 μl/s was utilized for media preparation, cell feeding, and media sampling for luciferase assay. After three weeks, cell aggregates were either fixed in neutral buffered formalin for histology or medium removed and aggregates frozen dry (−20° C.) for biochemical assays.
as §1, with “Cell” for “Conditioned”, “the seeded” for “aggregates in”, “at” for “mix (50 µl/well) for”, “units,” for “units (RLU),”

[3] = system: rat knee; details: cited from earlier work
[4] = system: HuCol2gLuc aggregates; test: Biochemical assays (DNA, GAG, total collagen) on HuCol2gLuc aggregates; type: cell-based, human
Experimental: Biochemical Assays. Aggregates frozen at day 22, were thawed with PBS, and digested with Papain (25 μg/ml, Sigma, P4762, in 2 mM cysteine; 50 mM sodium phosphate; 2 mM EDTA at a pH 6.5, 100 μl) at 65° C. overnight. Plates were sealed with a qPCR adhesive sealing film (USA Scientific), a silicone sheet, and steel plates clamped to the plate to prevent evaporation during digestion. Half of the digest (50 μl) was transferred to another plate and frozen for hydroxyproline assessment. In the remaining digest, papain was inactivated with 0.1M sodium hydroxide (NaOH, 50 μl) followed by NaOH neutralization (100 mM Na2HPO4, 0.1 N HCL, pH 1.82, 50 μl). To quantitate DNA content, samples of the neutralized digest (20 μl) were combined with buffered Hoechst dye (#33258, 667 ng/ml, phosphate buffer pH 8, 100 μl) and fluorescence measured at an excitation of 365 nm and emission of 460 nm. For GAG assessment, 1,9-Dimethyl-methylene blue solution (195 μl) was added to neutralized digests (5 μl) and absorbance measured at 595 nm and 525 nm. Readings were corrected by subtracting 595 nm reading from 525 nm. Micrograms of DNA and GAG were calculated using a Calf thymus DNA standard (Sigma) or Chondroitin Sulfate standard (Seikagaku Corp.), respectively.
For hydroxyproline (HP) quantification, the frozen digests (50 μl) were thawed at room temperature and incubated overnight at 105° C. with 6M hydrochloric acid (200 μl). Plates were sealed to prevent evaporation. Samples were then dried at 70° C. overnight with a hydroxyproline standard (Sigma). Copper sulfate (0.15 M, 10 μl) and NaOH (2.5 M, 10 μl) were added to each well and incubated at 50° C. for 5 minutes, followed by hydrogen peroxide (6%, 10 μl) for 10 minutes. Sulfuric acid (1.5 M, 40 μl) and Ehrlich's reagent (20 μl) were added and samples incubated at 70° C. for 15 minutes. Absorbance was measured at 505 nm. Micrograms of hydroxyproline were calculated using the standard. Total collagen was calculated by the following formula (μg of HP×7.6=μg Total Collagen).

[5] = validation, donor 2, 10 ng/ml TGF-β1

Molecule: CC(=O)CCCCn1c(=O)c2c(ncn2C)n(C)c1=O [Pentoxifylline, reference compound]
stimulation of type II collagen production in the screen of natural products [1]: stimulate type II collagen

Molecule: [Cr] [chromium, Chromium]
luminescence with a single vitamin or mineral vs basal media alone [2]: higher luminescence

cumulative luminescence vs untreated controls ([1]; donor 2, 12.5 μM and 25 μM): significant increase in luminescence
luminescence vs untreated controls ([1]; donor 2, 12.5 μM and 25 μM): increased luminescence
Molecule: Cl.Cl.Fc1ccc(N2CCN(CCC3OCCc4ccccc43)CC2)cc1 (stereo not drawn) [PNU 96415E, reference compound]

stimulation of type II collagen production in the screen of natural products [1]: stimulate type II collagen
Molecule: 6-Hydroxy-2-methoxyaporphine

stimulation of type II collagen production in the screen of natural products [1]: stimulate type II collagen
Molecule: Nc1nc(=O)c2c([nH]1)NCC(CNc1ccc(C(=O)N[C@@H](CCC(=O)[O-])C(=O)[O-])cc1)N2C=O.[Ca+2] (stereo partly drawn) [Calcium folinate, reference compound]

cumulative luminescence vs untreated controls ([1]; donor 2, 10 μM and 25 μM): significant increase in luminescence
luminescence vs untreated control ([1]; donor 2, 10 μM and 25 μM, from day 8 to day 22): increase in luminescence
Molecule: c1ccc(N2CCN(Cc3nc4ccccc4[nH]3)CC2)nc1 [ABT 724, reference compound]
luminescence vs untreated control ([1]; donor 2, 0.1 μM or 1 μM): no effect

Molecule: O=C(O)CCCC[C@@H]1SC[C@@H]2NC(=O)N[C@@H]21 [Vitamin B7, Biotin]
luminescence [2]: ~40,000 RLU
luminescence with a single vitamin or mineral vs basal media alone [2]: higher luminescence

Molecule: C=C1C(=O)OC2C1CCC(C)C1(O)C=CC(=O)C21C (stereo not drawn) [Parthenicin]
stimulation of type II collagen production in the screen of natural products [1]: stimulate type II collagen

Molecule: COc1cc2c3c(c1O)-c1cc(O)ccc1CC3N(C)CC2 (stereo not drawn) [1,10-Dihydroxy-2-methoxyaporphine]
stimulation of type II collagen production in the screen of natural products [1]: stimulate type II collagen

Molecule: [Cu] [Copper]
luminescence [2]: ~40,000 RLU

Molecule: CC(C)CC(=O)Nc1cncc(-c2ccc3[nH]nc(-c4nc5cncc(-c6cccc(F)c6)c5[nH]4)c3c2)c1 [SM04690, reference compound]
in vivo scaled amount [3]: 0.3 μg/rat knee

stimulation of type II collagen production in the screen of natural products [1]: stimulate type II collagen
Molecule: Nc1ncnc2c1ncn2C1C=C(CO)C(O)C1O (stereo not drawn) [5-(6-Aminopurin-9-yl)-3-(hydroxymethyl)cyclopent-3-ene-1,2-diol]

Molecule: [Co] [cobalt, Cobalt]
luminescence with a single vitamin or mineral vs basal media alone [2]: higher luminescence

stimulation of type II collagen production in the screen of natural products ([1]; listed as 204): stimulatory effects
stimulation of type II collagen production in the screen of natural products ([1]; listed as Deserpidine): stimulate type II collagen
day 22 luminescence normalized to DMSO vehicle control ([1]; screen, 5 μM, 1 ng/ml TGF-β1): significant increase in luminescence
cumulative luminescence ([1]; validation, donor 1): no significant increase
luminescence over 22 days vs untreated control ([1]; validation, donor 1, 10 ng/ml TGF-β1): increase in luminescence
luminescence over 22 days vs untreated control [1, 5]: not donor 2
Molecule: COC(=O)[C@H]1[C@H]2C[C@@H]3c4[nH]c5ccccc5c4CCN3C[C@H]2C[C@@H](OC(=O)c2cc(OC)c(OC)c(OC)c2)[C@@H]1OC [Drug 204, Deserpidine, reference compound]
glycosaminoglycan (GAG) content ([4]; day 22, donor 1): no effect on GAG
total collagen ([4]; day 22, donor 1): no significant increase in total collagen
DNA content ([4]; day 22, donor 2, vs untreated): significant decrease in DNA content
glycosaminoglycan (GAG) content ([4]; day 22, donor 2, untreated 15 μg): 10 µg
total collagen ([4]; day 22, donor 2, untreated ~14 μg): no significant increase in total collagen
trend of luminescence over 22 days normalized to DMSO ([1]; screen, 5 μM, 1 ng/ml TGF-β1): initial decrease in expression with continued increase in luminescence after day 8

Molecule: COc1cc2c3c(c1O)-c1cc(O)ccc1C[C@@H]3N(C)CC2 [(-)-Apoglaziovine]
stimulation of type II collagen production in the screen of natural products [1]: stimulate type II collagen

stimulation of type II collagen production in the screen of natural products [1]: stimulate type II collagen
Molecule: CC[C@]1(O)C[C@H]2CN(CCc3c([nH]c4ccccc34)[C@@](C(=O)OC)(c3cc4c(cc3OC)N(C=O)[C@H]3[C@@](O)(C(=O)OC)[C@H](OC(C)=O)[C@]5(CC)C=CCN6CC[C@]43[C@@H]65)C2)C1 [Vincristine sulfate, reference compound]

luminescence with a single vitamin or mineral vs basal media alone [2]: detrimental to chondrogenesis
Molecule: Vitamin A

Molecule: Promoline [Drug 84]
luminescence over 22 days vs untreated control [1, 5]: increased luminescence

luminescence with a single vitamin or mineral vs basal media alone [2]: higher luminescence
Molecule: N[C@@H](Cc1cc(I)c(Oc2cc(I)c(O)c(I)c2)c(I)c1)C(=O)O [thyroxine, Thyroxine]

stimulation of type II collagen production in the screen of natural products [1]: stimulate type II collagen
Molecule: CC(C)=CC(=O)O[C@H]1[C@H]2[C@H](OC(=O)[C@H]2C)[C@H](O)[C@@H](C)[C@@H]2C=CC(=O)[C@]21C [Fastigilin B]

B1: FGF18: growth factor cited for dose scaling (protein, UniProt O76093 28-207, looked up)
Fibroblast growth factor 18: EENVDFRIHVENQTRARDDVSRKQLRLYQLYSRTSGKHIQVLGRRISARGEDGDKYAQLLVETDTFGSQVRIKGKETEFYLCMNRKGKLVGKPDGTSKECVFIEKVLENNYTALMSAKYSGWYVGFTKKGRPRKGPKTRENQQDVHFMKRYPKGQPELQKPFKYTTVTKRSRRIRPTHPA
in vivo rat knee efficacy [3]: 3-5 μg/knee
